Where “and” joins values, the source holds several entries; their conditions need not be identical. Identical values can stand only once.
How the values were obtained:
DLD-1 cells = assay: Crizotinib synergistic effect with BRAFi in colorectal cells (FIG. 9); format: cell-based, human
From the text: The DLD-1 cells do harbor the BRAF activating mutation V600E but are not sensitive at all to BRAF inhibition. They actually grow faster under BRAFi.

[1] = test system: V600E BRAF melanoma cell lines; assay: HGF-induced / stromal resistance of melanoma cell lines to BRAF, MEK and AKT inhibitors and its reversal; format: cell-based, human; details: V600E BRAF melanoma cell lines with recombinant HGF
[2] = test system: BRAF V600E melanoma patients; assay: Clinical response of BRAF V600E melanoma patients to BRAFi or BRAFi + MEKi (Table 7); format: in vivo, human; details: one line per patient
pERK/pAKT = assay: High-throughput western analysis of pERK/pAKT re-activation by RTK ligands under BRAFi/MEKi; format: cell-based, human; details: under BRAFi (PLX4720); after 1 hour of cytokine treatment; six V600E BRAF melanoma cell lines
Description: FIG. 23B is a western blot showing the activation of AKT (phosphorylated AKT, S473) after 1 hour and 24 hours after treatment with HGF, IGF-1 (IGF), and Insulin (INS) in the presence of BRAFi (PLX4720, 2 μM). FIG. 23C is a western blot showing the effect of HGF (25 ng/mL) on MAPK and PI3K/AKT pathway activation (pRAF1, pMEK, pERK, pAKT and pMET) in melanoma cell lines after 24 hours of treatment with 2 μM BRAFi (PLX4720) or 2 μM MEKi (PD184352).
To understand why, of all the RTKs tested, only HGF could induce such a unique primary resistance phenotype, a high-throughput western analysis was used to test the ability of all 22 RTK ligands to re-activate pERK/pAKT under BRAFi (PLX4720) treatment in six V600E BRAF melanoma cell lines. […] However, whereas the activation of both ERK and AKT by HGF under PLX4720 treatment was long lasting, the activation of either ERK or AKT by the above cytokines was only transient and thus could not confer resistance to the melanoma cell lines.

[3] = test system: six V600E BRAF melanoma cell lines; assay: Screening of recombinant RTK ligands for ability to confer resistance to BRAFi (PLX4720) or MEKi (PD184352) (Table 4); format: cell-based, human; set-up: ability of recombinant RTK ligand to confer resistance / ability of recombinant RTK ligand to confer resistance (screening value): scale not given here
In short: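 Six V600E BRAF melanoma lines treated with PLX4720 or PD184352 after addition of 22 recombinant RTK ligands, scored for drug resistance. Activation of selected RTKs confirmed by western blotting and high-throughput tyrosine kinase phosphorylation profiling.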

C[C@@H](Oc1cc(-c2cnn(C3CCNCC3)c2)cnc1N)c1c(Cl)ccc(F)c1Cl [Crizotinib]
synergistic effect of Crizotinib (DLD-1 cells; DLD-1 cells, FIG. 9B): no substantial synergistic effect | sensitivity of colorectal cancer cell line to BRAFi on addition of Crizotinib (DLD-1 cells; cell line printed as DLD-1, BRAF V600E): restores full sensitivity | reversal of HGF-conferred BRAF/MEK inhibitor resistance [1]: directly reversed

CC(C)(C)c1nc(-c2cccc(NS(=O)(=O)c3c(F)cccc3F)c2F)c(-c2ccnc(N)n2)s1 [GSK2118436]
Response (Max) [2]: 9% and 40% | Time to progression (months) [2]: 3.5 months and 2.5 months

CCCS(=O)(=O)Nc1ccc(F)c(C(=O)c2c[nH]c3ncc(-c4ccc(Cl)cc4)cc23)c1F [Vemurafenib]
Response (Max) [2]: 90% and 72% (2×) and 50% and 100% and 25% and 23% and 22% and 10% and 0% (4×) and 54% and 34% and 20% and 56% and 27% | Response (Max), category [2]: POD | Time to progression (months) [2]: 7 months and 3.2 months and 5 months (2×) and 3 months and 12.4 months and 8 months and 5.4 months and 4.5 months and 8.5 months and 6.0 months and 7.3 months and 3.5 months and 6.5 months and 1.3 months

IGF-1: RTK ligand of IGF-1R
re-activation of pERK/pAKT (pERK/pAKT): only reactivate AKT | ability of RTK ligand to confer primary resistance ([3]; six V600E BRAF melanoma cell lines, BRAFi (PLX4720) or MEKi (PD184352)): not shown to induce primary resistance

EGF: RTK ligand (EGFR), cytokine tested
re-activation of pERK/pAKT (pERK/pAKT): reactivate only ERK | ability of recombinant RTK ligand to confer resistance ([3]; A2058, PD184352 - 1 uM, ligand 0.4 ng/ml): 1.05 | ability of recombinant RTK ligand to confer resistance ([3]; A2058, PD184352 - 1 uM, ligand 1.6 ng/ml): 1.04 | ability of recombinant RTK ligand to confer resistance ([3]; A2058, PD184352 - 1 uM, ligand 6.25 ng/ml): 0.95 | ability of recombinant RTK ligand to confer resistance ([3]; A2058, PD184352 - 1 uM, ligand 25 ng/ml): 0.96 | ability of recombinant RTK ligand to confer resistance ([3]; A2058, PD184352 - 1 uM, ligand 100 ng/ml): 1.00 | ability of recombinant RTK ligand to confer resistance ([3]; A2058, PLX4720 - 2 uM, ligand 0.4 ng/ml): 1.02 | ability of recombinant RTK ligand to confer resistance ([3]; A2058, PLX4720 - 2 uM, ligand 1.6 ng/ml): 1.03 | ability of recombinant RTK ligand to confer resistance ([3]; A2058, PLX4720 - 2 uM, ligand 6.25 ng/ml): 0.93 | ability of recombinant RTK ligand to confer resistance ([3]; A2058, PLX4720 - 2 uM, ligand 25 ng/ml): 0.97 | ability of recombinant RTK ligand to confer resistance ([3]; A2058, PLX4720 - 2 uM, ligand 100 ng/ml): 0.99 | ability of recombinant RTK ligand to confer resistance ([3]; C32, PD184352 - 1 uM, ligand 0.4 ng/ml): 1.01 | ability of recombinant RTK ligand to confer resistance ([3]; C32, PD184352 - 1 uM, ligand 1.6 ng/ml): 0.97 | ability of recombinant RTK ligand to confer resistance ([3]; C32, PD184352 - 1 uM, ligand 6.25 ng/ml): 1.06 | ability of recombinant RTK ligand to confer resistance ([3]; C32, PD184352 - 1 uM, ligand 25 ng/ml): 1.01 | ability of recombinant RTK ligand to confer resistance ([3]; C32, PD184352 - 1 uM, ligand 100 ng/ml): 0.99 | ability of recombinant RTK ligand to confer resistance ([3]; C32, PLX4720 - 2 uM, ligand 0.4 ng/ml): 1.06 | ability of recombinant RTK ligand to confer resistance ([3]; C32, PLX4720 - 2 uM, ligand 1.6 ng/ml): 0.94 | ability of recombinant RTK ligand to confer resistance ([3]; C32, PLX4720 - 2 uM, ligand 6.25 ng/ml): 1.03 | ability of recombinant RTK ligand to confer resistance ([3]; C32, PLX4720 - 2 uM, ligand 25 ng/ml): 0.93 | ability of recombinant RTK ligand to confer resistance ([3]; C32, PLX4720 - 2 uM, ligand 100 ng/ml): 0.99 | ability of recombinant RTK ligand to confer resistance ([3]; Colo 829, PD184352 - 1 uM, ligand 0.4 ng/ml): 0.97 | ability of recombinant RTK ligand to confer resistance ([3]; Colo 829, PD184352 - 1 uM, ligand 1.6 ng/ml): 0.96 | ability of recombinant RTK ligand to confer resistance ([3]; Colo 829, PD184352 - 1 uM, ligand 6.25 ng/ml): 0.99 | ability of recombinant RTK ligand to confer resistance ([3]; Colo 829, PD184352 - 1 uM, ligand 25 ng/ml): 0.94 | ability of recombinant RTK ligand to confer resistance ([3]; Colo 829, PD184352 - 1 uM, ligand 100 ng/ml): 1.00 | ability of recombinant RTK ligand to confer resistance ([3]; Colo 829, PLX4720 - 2 uM, ligand 0.4 ng/ml): 1.02 | ability of recombinant RTK ligand to confer resistance ([3]; Colo 829, PLX4720 - 2 uM, ligand 1.6 ng/ml): 1.00 | ability of recombinant RTK ligand to confer resistance ([3]; Colo 829, PLX4720 - 2 uM, ligand 6.25 ng/ml): 1.00 | ability of recombinant RTK ligand to confer resistance ([3]; Colo 829, PLX4720 - 2 uM, ligand 25 ng/ml): 0.97 | ability of recombinant RTK ligand to confer resistance ([3]; Colo 829, PLX4720 - 2 uM, ligand 100 ng/ml): 1.01 | ability of recombinant RTK ligand to confer resistance ([3]; G-361, PD184352 - 1 uM, ligand 0.4 ng/ml): 1.01 | ability of recombinant RTK ligand to confer resistance ([3]; G-361, PD184352 - 1 uM, ligand 1.6 ng/ml): 0.90 | ability of recombinant RTK ligand to confer resistance ([3]; G-361, PD184352 - 1 uM, ligand 6.25 ng/ml): 0.97 | ability of recombinant RTK ligand to confer resistance ([3]; G-361, PD184352 - 1 uM, ligand 25 ng/ml): 1.00 | ability of recombinant RTK ligand to confer resistance ([3]; G-361, PD184352 - 1 uM, ligand 100 ng/ml): 0.96 | ability of recombinant RTK ligand to confer resistance ([3]; G-361, PLX4720 - 2 uM, ligand 0.4 ng/ml): 0.98 | ability of recombinant RTK ligand to confer resistance ([3]; G-361, PLX4720 - 2 uM, ligand 1.6 ng/ml): 0.90 | ability of recombinant RTK ligand to confer resistance ([3]; G-361, PLX4720 - 2 uM, ligand 6.25 ng/ml): 0.94 | ability of recombinant RTK ligand to confer resistance ([3]; G-361, PLX4720 - 2 uM, ligand 25 ng/ml): 0.99 | ability of recombinant RTK ligand to confer resistance ([3]; G-361, PLX4720 - 2 uM, ligand 100 ng/ml): 0.93 | ability of recombinant RTK ligand to confer resistance ([3]; SK-MEL-5, PD184352 - 1 uM, ligand 0.4 ng/ml): 0.99 | ability of recombinant RTK ligand to confer resistance ([3]; SK-MEL-5, PD184352 - 1 uM, ligand 1.6 ng/ml): 1.04 | ability of recombinant RTK ligand to confer resistance ([3]; SK-MEL-5, PD184352 - 1 uM, ligand 6.25 ng/ml): 1.08 | ability of recombinant RTK ligand to confer resistance ([3]; SK-MEL-5, PD184352 - 1 uM, ligand 25 ng/ml): 1.11 | ability of recombinant RTK ligand to confer resistance ([3]; SK-MEL-5, PD184352 - 1 uM, ligand 100 ng/ml): 1.01 | ability of recombinant RTK ligand to confer resistance ([3]; SK-MEL-5, PLX4720 - 2 uM, ligand 0.4 ng/ml): 1.08 | ability of recombinant RTK ligand to confer resistance ([3]; SK-MEL-5, PLX4720 - 2 uM, ligand 1.6 ng/ml): 1.15 | ability of recombinant RTK ligand to confer resistance ([3]; SK-MEL-5, PLX4720 - 2 uM, ligand 6.25 ng/ml): 1.19 | ability of recombinant RTK ligand to confer resistance ([3]; SK-MEL-5, PLX4720 - 2 uM, ligand 25 ng/ml): 1.22 | ability of recombinant RTK ligand to confer resistance ([3]; SK-MEL-5, PLX4720 - 2 uM, ligand 100 ng/ml): 1.11 | ability of recombinant RTK ligand to confer resistance ([3]; SK-MEL-28, PD184352 - 1 uM, ligand 0.4 ng/ml): 1.03 | ability of recombinant RTK ligand to confer resistance ([3]; SK-MEL-28, PD184352 - 1 uM, ligand 1.6 ng/ml): 0.97 | ability of recombinant RTK ligand to confer resistance ([3]; SK-MEL-28, PD184352 - 1 uM, ligand 6.25 ng/ml): 0.93 | ability of recombinant RTK ligand to confer resistance ([3]; SK-MEL-28, PD184352 - 1 uM, ligand 25 ng/ml): 0.97 | ability of recombinant RTK ligand to confer resistance ([3]; SK-MEL-28, PD184352 - 1 uM, ligand 100 ng/ml): 1.05 | ability of recombinant RTK ligand to confer resistance ([3]; SK-MEL-28, PLX4720 - 2 uM, ligand 0.4 ng/ml): 1.00 | ability of recombinant RTK ligand to confer resistance ([3]; SK-MEL-28, PLX4720 - 2 uM, ligand 1.6 ng/ml): 1.01 | ability of recombinant RTK ligand to confer resistance ([3]; SK-MEL-28, PLX4720 - 2 uM, ligand 6.25 ng/ml): 0.97 | ability of recombinant RTK ligand to confer resistance ([3]; SK-MEL-28, PLX4720 - 2 uM, ligand 25 ng/ml): 0.94 | ability of recombinant RTK ligand to confer resistance ([3]; SK-MEL-28, PLX4720 - 2 uM, ligand 100 ng/ml): 1.03

Reference: patent publication US20140348819A1, “Methods of Treating Cancer” (Dana-Farber Cancer Institute, Inc., priority 2011, published 2014)
